How the values were obtained:
Beta-secretase 1 [1] = target: T1, Beta-secretase 1 (Homo sapiens, UniProt P56817); assay: Inhibition of BACE1 assessed as amyloid beta (1-40) production
Beta-secretase 1 [2] = target: T1, Beta-secretase 1
Mus musculus [3] = assay: Reduction in amyloid beta in mouse plasma at 25 mg/kg, po; assay type: ADME, organism-based; set-up: dose 25 mg/kg, route oral; scale not given: the % may be the effect or the level left; settings: in vivo
Mus musculus [4] = assay: Reduction in amyloid beta in mouse plasma at 50 mg/kg, po; assay type: ADME, organism-based; set-up: dose 50 mg/kg, route oral; scale not given: the % may be the effect or the level left; settings: in vivo
Mus musculus [5] = assay: Reduction in amyloid beta in mouse plasma at 10 mg/kg, po; assay type: ADME, organism-based; set-up: dose 10 mg/kg, route oral; scale not given: the % may be the effect or the level left; settings: in vivo

T1 sequence (P56817 whole entry): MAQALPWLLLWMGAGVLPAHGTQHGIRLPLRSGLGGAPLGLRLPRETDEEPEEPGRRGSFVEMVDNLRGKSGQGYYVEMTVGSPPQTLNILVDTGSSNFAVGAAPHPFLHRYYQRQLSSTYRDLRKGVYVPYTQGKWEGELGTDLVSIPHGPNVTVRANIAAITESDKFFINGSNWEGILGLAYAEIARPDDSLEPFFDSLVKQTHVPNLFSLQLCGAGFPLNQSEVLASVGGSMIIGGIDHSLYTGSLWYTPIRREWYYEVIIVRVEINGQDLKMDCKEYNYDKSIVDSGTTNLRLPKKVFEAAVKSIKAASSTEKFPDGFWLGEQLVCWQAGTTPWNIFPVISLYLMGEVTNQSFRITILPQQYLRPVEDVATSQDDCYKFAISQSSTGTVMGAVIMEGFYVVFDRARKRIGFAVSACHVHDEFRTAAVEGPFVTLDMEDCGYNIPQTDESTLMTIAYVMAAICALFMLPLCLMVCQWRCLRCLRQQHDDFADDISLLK

| SMILES | IC50 (Beta-secretase 1 [1]) | Ki (Beta-secretase 1 [2]) | Activity (Mus musculus [3]) | Activity (Mus musculus [4]) | Activity (Mus musculus [5]) |
| --- | --- | --- | --- | --- | --- |
| NC1=Nc2cc(F)c3cc2CN1[C@H](C1CCCCC1)CCC(=O)N(C1CCCCC1)CCc1cccc(c1)O3 | 30 nM | 8 nM |  |  |  |
| NC1=Nc2cnc3cc2CN1[C@H](C1CCCCC1)CCC(=O)N(C1CCCCC1)CCc1cccc(c1)O3 | 7 nM | 5 nM |  |  |  |
| CC(C)[C@@H]1CCC(=O)N(C2CCOCC2)CCc2cccc(c2)Oc2ccc3c(c2)CN1C(N)=N3 | 685 nM |  |  |  |  |
| NC1=Nc2ccc3cc2CN1[C@H](C1CCCCC1)CCC(=O)N(C1CCCCC1)CCc1cccc(c1)O3 |  |  | 22% | 23% | 13% |

— ChEMBL document CHEMBL1157115, “Macrocyclic BACE inhibitors: Optimization of a micromolar hit to nanomolar leads” (Bioorg Med Chem Lett, 2010)
